Experimental data taken from US20240245677A1, “SELECTED COMPOUNDS FOR TARGETED DEGRADATION OF BRD9” (C4 THERAPEUTICS, INC., priority 2021, published 2024).

Tests used:
[1] = Approximate solubility in solvents at 25° C. and 50° C. (visual observation); type: physicochemical; conditions: for Solubility (mg/mL), 25° C.: target conc. = 250 mg/mL; for Solubility (mg/mL), 50° C.: target conc. = 500 mg/mL
Protocol: Max. volume of each solvent added was 1 mL. Approximate solubility was determined by visual observation.
Max volume of each solvent added was 1 mL. Approximate solubility was determined by visual observation.

[2] = Equilibration with solvents at 25° C. for 2 weeks (XRPD); type: physicochemical
Protocol: Obtained suspension was filtered through a 0.45 μm nylon membrane filter by centrifugation at 14,000 rpm for 5 min. Solid parts (wet cakes) were investigated by XRPD immediately. Some samples with Form K were exposure to ambient condition and investigated by XRPD again.

[3] = Equilibration with solvents at 50° C. for 1 week (XRPD); type: physicochemical
Protocol: The obtained suspension was filtered through a 0.45 μm nylon membrane filter by centrifugation at 14,000 rpm for 5 min. Solid parts (wet cakes) were investigated by XRPD immediately. For samples with different XRPD results, additional analysis including HPLC, DSC, TGA, ^1H-NMR and KF was performed. Some samples with Form K were exposure to ambient condition and investigated by XRPD again.

[4] = Equilibration under a temperature cycle (XRPD); type: physicochemical
Protocol: Obtained suspension was filtered through a 0.45 μm nylon membrane filter by centrifugation at 14,000 rpm for 5 min. Solid parts (wet cakes) were investigated by XRPD immediately. For samples with different XRPD results, additional analysis including HPLC, DSC, TGA, ^1H-NMR and KF was performed. Some samples with Form K were exposure to ambient condition and investigated by XRPD again.

IKZF1 = biological target: T1, IKZF1 (Homo sapiens, UniProt Q13422+Q96SW2); experiment: IKZF1 HiBiT degradation assay in NCIH929.11 cells; type: cell-based
T1 construct: CRISPR-edited to endogenously express HiBiT tagged IKZF1; host or cells: NCIH929.11

SALL4 = biological target: T2, SALL4 (Homo sapiens, UniProt Q96SW2+Q9UJQ4); experiment: SALL4 HiBiT degradation assay in KELLY.2 cells; type: cell-based; conditions: read-out: Mean Emax (%) ± SD
T2 construct: CRISPR-edited to endogenously express HiBiT tagged SALL4; host or cells: KELLY.2
Excerpt: Nano-Glo® HiBiT Lytic Assay System was purchased from Promega (Catalog No. N3050, Madison, WI, USA). […] The HiBiT polypeptide tag was introduced into the C-terminus of the endogenous SALL4 locus by CRISPR-Cas9 to produce the modified KELLY.2 cell line. The HiBiT polypeptide allows reconstitution of NanoBiT enzyme following cell lysis and addition of the complementing LgBiT polypeptide that activates substrate to produce a luminescent signal that is directly proportional to the amount of HiBiT-tagged SALL4.
KELLY.2 cells were routinely sub-cultured to maintain cell density between 30-80% confluence, not to exceed 10 passages. Cells were washed with PBS, trypsinized for 5 minutes at 37° C., and resuspended in fresh growth media without phenol red. […] Cell concentration was adjusted with growth media without phenol red to 2×10^5 cells/mL.
30 nL DMSO was transferred to all control wells.
30 μL of media was dispensed to column 24 as background positive control (P). Plates were spun briefly at 1000 rpm and cells were incubated at 37° C., 5% CO2 for 6 hours. Final concentration of DMSO was 0.1% for all samples.
Cellular SALL4 protein level was determined based on quantification of HiBiT using Nano-Glo® HiBiT Lytic Assay System (Promega). […] Cells treated in the absence of the test compound (0.1% DMSO vehicle) were the negative control (N) and wells containing only media were the positive control (P).
Percent response of compound-treated samples (T) were calculated by normalizing to the DMSO treated negative (N) controls on the same microtiter plate after background (i.e., positive control) signal subtraction:
Curve fit and DC50 (concentration that degrades 50% SALL4) determination was performed by 4 parametric logistic fit analysis using software such as GraphPad Prism software (GraphPad Software, LLC, San Diego, CA, USA). The fit was performed through minimization of the root mean squared error between observed and calculated values of the four-parameter logistic equation using the simplex optimizer of the Apache Commons Math library. […] DC50 values were computed as the concentrations where the fitted curves cross the 50% response level. Averages and standard deviations were computed from replicates of the experiment.

T1 sequence (Q13422 whole entry): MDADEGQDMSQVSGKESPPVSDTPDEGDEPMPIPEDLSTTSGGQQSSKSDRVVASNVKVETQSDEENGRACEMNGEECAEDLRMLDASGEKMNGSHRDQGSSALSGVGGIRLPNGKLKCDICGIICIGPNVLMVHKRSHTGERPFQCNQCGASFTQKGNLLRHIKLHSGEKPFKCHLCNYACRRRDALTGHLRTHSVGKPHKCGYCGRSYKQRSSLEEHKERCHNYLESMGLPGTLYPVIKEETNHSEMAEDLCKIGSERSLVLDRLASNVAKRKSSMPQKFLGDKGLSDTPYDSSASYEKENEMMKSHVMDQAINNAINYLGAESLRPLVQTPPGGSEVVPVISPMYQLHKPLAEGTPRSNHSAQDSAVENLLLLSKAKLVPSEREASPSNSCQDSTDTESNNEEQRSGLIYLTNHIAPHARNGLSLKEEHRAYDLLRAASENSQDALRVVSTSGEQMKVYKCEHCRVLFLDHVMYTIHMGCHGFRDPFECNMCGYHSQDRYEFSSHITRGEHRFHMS
T1 sequence (Q96SW2 whole entry): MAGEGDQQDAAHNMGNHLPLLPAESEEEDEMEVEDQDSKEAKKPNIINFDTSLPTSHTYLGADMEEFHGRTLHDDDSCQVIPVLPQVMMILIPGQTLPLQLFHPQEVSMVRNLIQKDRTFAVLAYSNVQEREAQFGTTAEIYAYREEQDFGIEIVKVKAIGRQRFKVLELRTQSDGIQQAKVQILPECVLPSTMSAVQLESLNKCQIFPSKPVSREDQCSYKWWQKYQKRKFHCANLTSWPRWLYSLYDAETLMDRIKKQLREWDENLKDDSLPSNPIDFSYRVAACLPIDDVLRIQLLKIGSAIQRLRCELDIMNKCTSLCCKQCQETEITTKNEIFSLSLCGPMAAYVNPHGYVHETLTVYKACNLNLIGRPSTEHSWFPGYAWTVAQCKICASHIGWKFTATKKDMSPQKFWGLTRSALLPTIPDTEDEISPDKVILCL
T1 sequence (Q16531 2-1140 partner limits assumed): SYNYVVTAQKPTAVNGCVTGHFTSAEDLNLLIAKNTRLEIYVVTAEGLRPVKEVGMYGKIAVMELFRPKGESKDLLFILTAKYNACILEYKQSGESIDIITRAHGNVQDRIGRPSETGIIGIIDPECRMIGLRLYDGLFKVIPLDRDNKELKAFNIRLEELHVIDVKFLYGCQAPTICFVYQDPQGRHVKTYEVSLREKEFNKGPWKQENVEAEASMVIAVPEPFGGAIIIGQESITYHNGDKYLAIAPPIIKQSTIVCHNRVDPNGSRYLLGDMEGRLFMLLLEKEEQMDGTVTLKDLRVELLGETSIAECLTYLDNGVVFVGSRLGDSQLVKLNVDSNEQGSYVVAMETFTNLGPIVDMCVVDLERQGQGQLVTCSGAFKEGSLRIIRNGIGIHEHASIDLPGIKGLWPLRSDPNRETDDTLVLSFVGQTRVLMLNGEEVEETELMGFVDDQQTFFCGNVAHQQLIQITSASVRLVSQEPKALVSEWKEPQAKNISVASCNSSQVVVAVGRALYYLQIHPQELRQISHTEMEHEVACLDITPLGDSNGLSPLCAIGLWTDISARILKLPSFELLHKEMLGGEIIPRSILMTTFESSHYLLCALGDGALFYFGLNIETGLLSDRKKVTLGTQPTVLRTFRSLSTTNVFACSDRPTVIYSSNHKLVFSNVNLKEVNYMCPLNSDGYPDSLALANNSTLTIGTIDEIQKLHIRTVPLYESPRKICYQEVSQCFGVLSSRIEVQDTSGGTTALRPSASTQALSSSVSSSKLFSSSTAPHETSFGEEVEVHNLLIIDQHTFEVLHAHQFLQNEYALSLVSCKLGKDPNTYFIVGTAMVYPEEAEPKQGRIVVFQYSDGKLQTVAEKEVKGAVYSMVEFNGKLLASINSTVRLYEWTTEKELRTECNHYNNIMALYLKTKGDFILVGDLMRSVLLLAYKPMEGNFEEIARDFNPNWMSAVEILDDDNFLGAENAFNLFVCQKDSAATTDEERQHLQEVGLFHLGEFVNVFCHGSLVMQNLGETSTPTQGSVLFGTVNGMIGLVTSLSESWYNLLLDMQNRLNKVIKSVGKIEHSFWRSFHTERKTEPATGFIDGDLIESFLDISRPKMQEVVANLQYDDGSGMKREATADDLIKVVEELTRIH
T2 sequence (Q9UJQ4 whole entry): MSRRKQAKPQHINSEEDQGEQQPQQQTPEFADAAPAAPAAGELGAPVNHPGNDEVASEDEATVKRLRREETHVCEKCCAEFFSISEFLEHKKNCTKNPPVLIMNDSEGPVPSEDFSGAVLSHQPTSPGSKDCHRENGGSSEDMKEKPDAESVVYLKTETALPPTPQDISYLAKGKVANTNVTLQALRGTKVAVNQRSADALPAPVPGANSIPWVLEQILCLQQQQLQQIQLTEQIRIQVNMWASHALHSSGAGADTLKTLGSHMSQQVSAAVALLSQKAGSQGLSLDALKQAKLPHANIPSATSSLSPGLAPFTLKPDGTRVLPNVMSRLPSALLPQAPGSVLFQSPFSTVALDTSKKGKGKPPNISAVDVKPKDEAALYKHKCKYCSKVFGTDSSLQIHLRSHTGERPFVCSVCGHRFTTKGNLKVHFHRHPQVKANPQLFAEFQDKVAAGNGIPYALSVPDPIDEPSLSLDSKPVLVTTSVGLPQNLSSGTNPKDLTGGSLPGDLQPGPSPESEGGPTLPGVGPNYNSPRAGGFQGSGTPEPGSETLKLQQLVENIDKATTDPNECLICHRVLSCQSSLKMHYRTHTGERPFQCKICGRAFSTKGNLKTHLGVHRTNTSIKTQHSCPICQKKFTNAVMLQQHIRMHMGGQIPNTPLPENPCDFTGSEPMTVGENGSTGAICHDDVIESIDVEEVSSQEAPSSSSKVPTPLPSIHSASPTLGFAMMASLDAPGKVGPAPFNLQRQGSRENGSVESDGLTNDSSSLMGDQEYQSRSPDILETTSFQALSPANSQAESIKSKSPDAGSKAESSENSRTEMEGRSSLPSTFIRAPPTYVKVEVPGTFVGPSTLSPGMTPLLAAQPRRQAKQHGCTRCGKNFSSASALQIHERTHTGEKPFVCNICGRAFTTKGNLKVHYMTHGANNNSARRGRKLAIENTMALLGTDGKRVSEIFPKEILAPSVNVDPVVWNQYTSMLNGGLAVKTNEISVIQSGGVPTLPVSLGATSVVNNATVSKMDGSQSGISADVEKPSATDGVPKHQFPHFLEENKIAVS
T2 sequence (Q96SW2 whole entry): as the sequence (Q96SW2 whole entry) above
T2 sequence (Q16531 2-1140 partner limits assumed): as the sequence (Q16531 2-1140 partner limits assumed) above

COc1cc(-c2cn(C)c(=O)c(C)c2C)cc(OC)c1CN1CC[C@H](N2CCN(c3ccc(N[C@H]4CCC(=O)NC4=O)cc3F)CC2)C(F)(F)C1 [Pattern E]
Solubility (mg/mL), 25° C. ([1]; 1,4-Dioxane): >250 mg/mL
Solubility (mg/mL), 50° C. ([1]; 1,4-Dioxane): >500 mg/mL
Solubility (mg/mL), 25° C. ([1]; 2-MeTHF): 83 to 125 mg/mL
Solubility (mg/mL), 50° C. ([1]; 2-MeTHF): 250 to 500 mg/mL
Solubility (mg/mL), 25° C. ([1]; Acetone): 20 to 25 mg/mL
Solubility (mg/mL), 50° C. ([1]; Acetone): 100 to 200 mg/mL
Solubility (mg/mL), 25° C. ([1]; Acetonitrile): 5 to 6 mg/mL
Solubility (mg/mL), 50° C. ([1]; Acetonitrile): <10 mg/mL
Solubility (mg/mL), 25° C. ([1]; DCM): 125 to 250 mg/mL
Solubility (mg/mL), 25° C. ([1]; DMSO): >250 mg/mL
Solubility (mg/mL), 50° C. ([1]; DMSO): >500 mg/mL
Solubility (mg/mL), 25° C. ([1]; Ethanol): 6 to 8 mg/mL
Solubility (mg/mL), 50° C. ([1]; Ethanol): 16 to 25 mg/mL
Solubility (mg/mL), 25° C. ([1]; Ethyl acetate): 6 to 8 mg/mL
Solubility (mg/mL), 50° C. ([1]; Ethyl acetate): 14 to 20 mg/mL
Solubility (mg/mL), 25° C. ([1]; Heptane): <5 mg/mL
Solubility (mg/mL), 50° C. ([1]; Heptane): <10 mg/mL
Solubility (mg/mL), 25° C. ([1]; MTBE (Methyl tert-butyl ether)): <5 mg/mL
Solubility (mg/mL), 50° C. ([1]; MTBE): <10 mg/mL
Solubility (mg/mL), 25° C. ([1]; Methanol): 8 to 13 mg/mL
Solubility (mg/mL), 50° C. ([1]; Methanol): 18 to 22 mg/mL
Solubility (mg/mL), 25° C. ([1]; Methanol/water (v:v = 95:5)): 8 to 13 mg/mL
Solubility (mg/mL), 50° C. ([1]; Methanol/water (v:v = 95:5)): 14 to 20 mg/mL
Solubility (mg/mL), 25° C. ([1]; THF (Tetrahydrofuran)): >250 mg/mL
Solubility (mg/mL), 50° C. ([1]; THF): >500 mg/mL
Solubility (mg/mL), 25° C. ([1]; Toluene): <5 mg/mL
Solubility (mg/mL), 50° C. ([1]; Toluene): <10 mg/mL
Solubility (mg/mL), 25° C. ([1]; Water): <5 mg/mL
Solubility (mg/mL), 50° C. ([1]; Water): <10 mg/mL
XRPD after equilibration at 25° C. for 2 weeks ([2]; 1,4-dioxane/heptane (v:v = 1:1)): +Pattern B
XRPD after equilibration at 25° C. for 2 weeks ([2]; 2-MeTHF): +Pattern B
XRPD after equilibration at 25° C. for 2 weeks ([2]; Acetone): +Pattern B
XRPD after equilibration at 25° C. for 2 weeks ([2]; Acetone/water (v:v = 36:64) a.w. = 0.90): +Pattern K
XRPD after equilibration at 25° C. for 2 weeks ([2]; Acetone/water (v:v = 76:24) a.w. = 0.70): +Pattern B
XRPD after equilibration at 25° C. for 2 weeks ([2]; Acetone/water (v:v = 92:8) a.w. = 0.50): +Pattern B
XRPD after equilibration at 25° C. for 2 weeks ([2]; Acetonitrile): +Pattern B
XRPD after equilibration at 25° C. for 2 weeks ([2]; DCM/heptane (v:v = 1:1)): +Pattern F
XRPD after equilibration at 25° C. for 2 weeks ([2]; DMSO/water (v:v = 23:77) a.w. = 0.91): +Pattern K
XRPD after equilibration at 25° C. for 2 weeks ([2]; Ethanol): +Pattern A
XRPD after equilibration at 25° C. for 2 weeks ([2]; Ethyl acetate): +Pattern F
XRPD after equilibration at 25° C. for 2 weeks ([2]; Methanol): +Pattern K
XRPD after equilibration at 25° C. for 2 weeks ([2]; THF/heptane (v:v = 1:1)): +Pattern B
XRPD after equilibration at 25° C. for 2 weeks ([2]; Toluene): +Pattern K
XRPD ([3]; equilibration at 50° C. for 1 week, 1,4-Dioxane/heptane (v:v = 1:1)): +Pattern B
XRPD ([3]; equilibration at 50° C. for 1 week, 2-MeTHF): +Pattern B
XRPD ([3]; equilibration at 50° C. for 1 week, Acetone): +Pattern B
XRPD ([3]; equilibration at 50° C. for 1 week, Acetone/water (v:v = 36:64) a.w. = 0.90): +Pattern K
XRPD ([3]; equilibration at 50° C. for 1 week, Acetone/water (v:v = 76:24) a.w. = 0.71): +Pattern B
XRPD ([3]; equilibration at 50° C. for 1 week, Acetone/water (v:v = 92:8) a.w. = 0.50): +Pattern B
XRPD ([3]; equilibration at 50° C. for 1 week, Acetonitrile): +Pattern F
XRPD ([3]; equilibration at 50° C. for 1 week, DMSO/water (v:v = 23:77) a.w. = 0.91): +Pattern K
XRPD ([3]; equilibration at 50° C. for 1 week, DMSO/water (v:v = 64:36) a.w. = 0.53): +Pattern B
XRPD ([3]; equilibration at 50° C. for 1 week, Ethanol): +Pattern F
XRPD ([3]; equilibration at 50° C. for 1 week, Ethyl acetate): +Pattern F
XRPD ([3]; equilibration at 50° C. for 1 week, THF/heptane (v:v = 1:1)): +Pattern B
XRPD ([3]; equilibration at 50° C. for 1 week, Toluene): +Pattern G
XRPD ([4]; equilibration under a temperature cycle, 1,4-Dioxane/heptane (v:v = 1:1)): +Pattern B
XRPD ([4]; equilibration under a temperature cycle, 2-MeTHF): +Pattern F
XRPD ([4]; equilibration under a temperature cycle, Acetone): +Pattern B
XRPD ([4]; equilibration under a temperature cycle, Acetone/water (v:v = 36:64)): +Pattern K
XRPD ([4]; equilibration under a temperature cycle, Acetone/water (v:v = 76:24)): +Pattern A
XRPD ([4]; equilibration under a temperature cycle, Acetone/water (v:v = 92:8)): +Pattern B
XRPD ([4]; equilibration under a temperature cycle, Acetonitrile): +Pattern B
XRPD ([4]; equilibration under a temperature cycle, DCM/heptane (v:v = 1:1)): +Pattern F
XRPD ([4]; equilibration under a temperature cycle, DMSO/water (v:v = 64:36)): +Pattern F
XRPD ([4]; equilibration under a temperature cycle, Ethanol): +Pattern F
XRPD ([4]; equilibration under a temperature cycle, Ethyl acetate): +Pattern F
XRPD ([4]; equilibration under a temperature cycle, Methanol): +Pattern B
XRPD ([4]; equilibration under a temperature cycle, THF/heptane (v:v = 1:1)): +Pattern F
XRPD ([4]; equilibration under a temperature cycle, Toluene): +Pattern A

Nc1cccc2c1C(=O)N(C1CCC(=O)NC1=O)C2=O (stereo not shown) [Pomalidomide, reference compound]
degradation of IKZF1 induced (IKZF1; positive control, 6 hours): 8000
Emax (IKZF1; read-out: Mean Emax (%) ± SD): 20.8 ± 3.2%
Emax (SALL4): 9.5 ± 1.5%
